Data set [1] can be described thus: UV absorption (λmax, εmax) in solution. Type of data set: physicochemical.

The source of these data is patent US20080253978A1, “Derivatives of Pyrrolyltriazine Together with Methods for Obtaining Them and Their Use as Protecting Agents Uv Radiation” (ISDIN, S.A., priority 2005, published 2008).

“And” between values parts separate entries of the source, which are not always exact repeats. Identical values can stand only once.

On to `O=C1c2ccccc2-c2cc(Nc3nc(Nc4ccc5c(c4)-c4ccccc4C5=O)nc(-c4cccn4Cc4ccccc4)n3)ccc21` [Example 5, 2-(1-benzyl-1H-pyrrol-2-yl)-4,6-bis(9-oxo-9H-fluoren-3-ylamino)-1,3,5-triazine], for which the melting point was 140 to 142 °C. Further, in data set [1] (ethanol), the “UV λmax” value is recorded as 292 nm and the εmax amounted to 77000 M⁻¹ cm⁻¹.
As for `CCCCOC(=O)c1ccc(Nc2nc(Nc3ccc(C(=O)OCCCC)cc3)nc(-c3cccn3C(c3ccccc3)c3ccccc3)n2)cc1` [Example 7, 2-(1-benzydryl-1H-pyrrol-2-yl)-4,6-bis[4-(butoxycarbonyl)phenylamino]-1,3,5-triazine], the melting point fell in the range of 80 to 82 °C. Besides, in data set [1] (ethanol), the “UV λmax” value amounted to 315 nm and the εmax was found to be 81000 M⁻¹ cm⁻¹.
Regarding `c1ccc(Cn2cccc2-c2nc(Nc3ccc(-c4cn5ccccc5n4)cc3)nc(Nc3ccc(-c4cn5ccccc5n4)cc3)n2)cc1` [Example 6, 2-(1-benzyl-1H-pyrrol-2-yl)-4,6-bis[4-(imidazo[1,2-a]pyridin-2-yl)phenylamino]-1,3,5-triazine], in data set [1] (ethanol), the “UV λmax” value is listed as 332 nm and the εmax was determined as 71000 M⁻¹ cm⁻¹.
Compound `O=C(c1ccccc1)c1ccc(Nc2nc(Nc3ccc(C(=O)c4ccccc4)cc3)nc(-c3cccn3Cc3ccccc3)n2)cc1` [Example 4, 2-(1-benzyl-1H-pyrrol-2-yl)-4,6-bis(4-benzoylphenylamino)-1,3,5-triazine] came in with a melting point of 115 to 118 °C. For the same compound, in data set [1] (ethanol), the “UV λmax” value turned out to be 330 nm and the εmax amounted to 80000 M⁻¹ cm⁻¹.
`CCCCC(CC)COc1ccc(-c2nc(-c3ccc(OCC(CC)CCCC)cc3O)nc(-c3cccn3Cc3ccccc3)n2)c(O)c1` (stereo not drawn) [Example 1, 2-(1-benzyl-1H-pyrrol-2-yl)-4,6-bis[4-(2-ethylhexyloxy)-2-hydroxyphenyl]-1,3,5-triazine]: the melting point lay in the range of 66 to 68 °C. Moreover, in data set [1] (chloroform), the εmax worked out at 66000 M⁻¹ cm⁻¹ and the λmax is recorded as 350-352 nm.
Take `CCCCC(CC)COC(=O)c1ccc(Nc2nc(Nc3ccc(C(=O)OCC(CC)CCCC)cc3)nc(-c3cccn3Cc3ccccc3)n2)cc1` (stereo not drawn) [Example 9, 2-(1-benzyl-1H-pyrrol-2-yl)-4,6-bis[4-((2-ethylhexyloxy)carbonyl)phenylamino]-1,3,5-triazine]: in data set [1] (CHCl3/MeOH), the “UV λmax” value came to 315 nm and the εmax turned out to be 76000 M⁻¹ cm⁻¹.
Turning to `c1ccc(Cn2cccc2-c2nc(Nc3ccc4ccccc4c3)nc(Nc3ccc4ccccc4c3)n2)cc1` [Example 13, 2-(1-benzyl-1H-pyrrol-2-yl)-4,6-bis[naphthalen-2-ylamino]-1,3,5-triazine], in data set [1] (MeOH), the “UV λmax” value is 263 nm and 308 nm. For the same compound, the εmax in data set [1] (MeOH, at λmax=263 nm) is 54000 M⁻¹ cm⁻¹; in data set [1] (MeOH, at λmax=308 nm), 52000 M⁻¹ cm⁻¹.
As for `CCCCOC(=O)c1ccc(Nc2nc(Nc3ccc(C(=O)OCCCC)cc3)nc(-c3cccn3Cc3ccccc3)n2)cc1` [Example 2, 2-(1-benzyl-1H-pyrrol-2-yl)-4,6-bis[4-(butoxycarbonyl)phenylamino]-1,3,5-triazine], the melting point was 173 to 174 °C. In data set [1] (chloroform), this compound gave a εmax of 64000 M⁻¹ cm⁻¹ and a λmax of 312 nm.
As for “2-(1-benzyl-1H-pyrrol-2-yl)-4,6-bis[4-(H-imidazo[1,2-a]pyridin-2-yl)phenylamino]-1,3,5-triazine [Example 10]”, in data set [1] (DMSO), the “UV λmax” value is given as 338 nm and the εmax amounted to 55000 M⁻¹ cm⁻¹.
Consider `CCOC(=O)/C=C/c1ccc(Nc2nc(Nc3ccc(/C=C/C(=O)OCC)cc3)nc(-c3cccn3Cc3ccccc3)n2)cc1` [Example 14, 2-(1-benzyl-1H-pyrrol-2-yl)-4,6-bis[4-((E)-3-ethoxy-3-oxoprop-1-enyl)phenylamino]-1,3,5-triazine], for which, in data set [1] (MeOH), the “UV λmax” value is 336 nm and the εmax is 57000 M⁻¹ cm⁻¹.
`Oc1ccc(-c2nc(-c3ccc(O)cc3O)nc(-c3cccn3Cc3ccccc3)n2)c(O)c1` [Example 1 b), 2-(1-benzyl-1H-pyrrol-2-yl)-4,6-bis(2,4-dihydroxyphenyl)-1,3,5-triazine] gave a melting point of over 275 °C.
For `C(=C\c1ccc(Nc2nc(Nc3ccc(/C=C/c4ccccc4)cc3)nc(-c3cccn3Cc3ccccc3)n2)cc1)/c1ccccc1` [Example 15, 2-(1-benzyl-1H-pyrrol-2-yl)-4,6-bis[4-(E)-styrylphenylamino]-1,3,5-triazine], in data set [1] (CHCl3), the “UV λmax” value was found to be 336 nm and the εmax is reported as 102000 M^1 cm^−1.
With `c1ccc(Cn2cccc2-c2nc(Nc3ccc(-c4ccccc4)cc3)nc(Nc3ccc(-c4ccccc4)cc3)n2)cc1` [Example 3, 2-(1-benzyl-1H-pyrrol-2-yl)-4,6-bis(biphenyl-4-ylamino)-1,3,5-triazine], the melting point lay within 185 to 186 °C. In data set [1] (ethanol), the “UV λmax” value turned out to be 309 nm and the εmax is 73000 M⁻¹ cm⁻¹.
As to `c1ccc(Cn2cccc2-c2nc(Nc3ccc(-n4cccn4)cc3)nc(Nc3ccc(-n4cccn4)cc3)n2)cc1` [Example 12, 2-(1-benzyl-1H-pyrrol-2-yl)-4,6-bis[4-(1H-pyrazol-1-yl)phenylamino]-1,3,5-triazine], in data set [1] (MeOH), the “UV λmax” value is recorded as 307 nm and the εmax was found to be 67000 M⁻¹ cm⁻¹.
In the case of `c1ccc(Cn2cccc2-c2nc(Nc3ccc(-c4nc5ccccc5[nH]4)cc3)nc(Nc3ccc(-c4nc5ccccc5[nH]4)cc3)n2)cc1` [Example 11, 2-(1-benzyl-1H-pyrrol-2-yl)-4,6-bis[4-(1H-benzo[d]imidazol-2-yl)phenylamino]-1,3,5-triazine], in data set [1] (CHCl3/MeOH), the “UV λmax” value came to 327 nm and the εmax came out at 100000 M^1 cm^−1.
